Test results: PubChem BioAssay (NCI)
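The compound was tested at five concentrations on cells cultured in 96-well plates, with a 48-hour exposure period. At the GI50, growth is halved. TGI denotes the concentration required for complete inhibition of growth.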

What was measured:
Assay in all cases: DTP human tumour cell line panel, 48 h
[1] = system: TK-10 renal
[2] = system: IGROV1 ovarian
[3] = system: SNB-75 CNS
[4] = system: A498 renal
[5] = system: EKVX NSCLC
[6] = system: HT29 colon
[7] = system: RXF 393 renal
[8] = system: NCI/ADR-RES ovarian
[9] = system: SW-620 colon
[10] = system: SK-OV-3 ovarian

COc1ncnc(NS(=O)(=O)c2ccc(N=C3C(=O)N(CN4CCN(c5c(F)cc6c(=O)c(C(=O)O)cn(C7CC7)c6c5OC)CC4C)c4ccc(Br)cc43)cc2)c1OC (centres undefined)
GI50 [1]: 2470 nM
TGI [1]: > 50000 nM
GI50 [2]: 17300 nM
TGI [2]: > 50000 nM
GI50 [3]: > 50000 nM
TGI [3]: > 50000 nM
GI50 [4]: 11300 nM
TGI [4]: > 50000 nM
GI50 [5]: 6400 nM
TGI [5]: 44800 nM
GI50 [6]: 15600 nM
TGI [6]: > 50000 nM
GI50 [7]: 12900 nM
TGI [7]: 33000 nM
GI50 [8]: 7060 nM
TGI [8]: > 50000 nM
GI50 [9]: 9410 nM
TGI [9]: > 50000 nM

CCC1(O)C(=O)OCc2c1cc1n(c2=O)Cc2cc3c(NC(=O)CN)cccc3nc2-1 (centres undefined)
GI50 [1]: 38700 nM
TGI [1]: > 97600 nM
GI50 [2]: 3900 nM
TGI [2]: 73400 nM
GI50 [3]: 346 nM
TGI [3]: 5140 nM
GI50 [10]: 377 nM
TGI [10]: 31300 nM
GI50 [4]: 883 nM
TGI [4]: 5650 nM
GI50 [5]: 19700 nM
TGI [5]: > 88200 nM
TGI [6]: > 79300 nM
GI50 [7]: 515 nM
TGI [7]: 3910 nM
GI50 [8]: 296 nM
TGI [8]: 1510 nM
GI50 [9]: 1750 nM
TGI [9]: 97900 nM

CSc1nc2sc3c(c2c(=O)n1-c1ccc(C(C)C)cc1)CCC(=O)C3
GI50 [1]: 2580 nM
TGI [1]: 6530 nM
GI50 [2]: 2020 nM
TGI [2]: 4880 nM
GI50 [3]: 2220 nM
TGI [3]: 5210 nM
GI50 [10]: 2630 nM
TGI [10]: 6920 nM
GI50 [4]: 20400 nM
TGI [4]: 82700 nM
GI50 [5]: 3020 nM
TGI [5]: > 100000 nM
GI50 [6]: 2970 nM
TGI [6]: 6700 nM
GI50 [7]: 2210 nM
TGI [7]: 5370 nM
GI50 [8]: 2360 nM
TGI [8]: 5130 nM
GI50 [9]: 2230 nM
TGI [9]: 4560 nM

CC1OC(OC2C(O)CC(OC3C(O)CC(OC4CCC5(C)C(CCC6C5CC(O)C5(C)C(C7=CC(=O)OC7)CCC65O)C4)OC3C)OC2C)CC(O)C1O (centres undefined)
GI50 [1]: 29.5 nM
TGI [1]: 87 nM
GI50 [2]: 127 nM
TGI [2]: 1110 nM
GI50 [3]: 76.5 nM
TGI [3]: 241 nM
GI50 [10]: 51.3 nM
TGI [10]: 171 nM
GI50 [4]: 107 nM
TGI [4]: 544 nM
GI50 [5]: 35.1 nM
TGI [5]: 121 nM
GI50 [6]: 41.7 nM
TGI [6]: 154 nM
GI50 [7]: 29.3 nM
TGI [7]: 99.4 nM
GI50 [8]: 38.5 nM
TGI [8]: 145 nM
GI50 [9]: 42.3 nM
TGI [9]: 165 nM

CCCCCO/N=C\c1c2c(O)c3c(O)c(C)c4c(c3c1O)C(=O)C(C)(O/C=C\C(OC)C(C)C(OC(C)=O)C(C)C(O)C(C)C(O)C(C)/C=C\C=C(\C)C(=O)N2)O4 (centres undefined)
GI50 [3]: 1460 nM
TGI [3]: 2870 nM
GI50 [10]: 2290 nM
TGI [10]: 6840 nM
GI50 [4]: 1640 nM
TGI [4]: 3160 nM
GI50 [5]: 2090 nM
TGI [5]: 6950 nM
GI50 [7]: 1710 nM
TGI [7]: 3100 nM
GI50 [8]: 1790 nM
TGI [8]: 3680 nM
GI50 [9]: 1680 nM
TGI [9]: 3040 nM

C=CCN1CC(=O)N2[C@@H](Cc3ccc(O)cc3F)C(=O)N(Cc3cccc(N4CC(N5CCN(CC)CC5)C4)n3)C[C@@H]2N1C(=O)NCc1ccccc1
GI50 [1]: 160 nM
TGI [1]: > 100000 nM
GI50 [3]: 17 nM
TGI [3]: 131 nM
GI50 [10]: 34.5 nM
TGI [10]: 244 nM
GI50 [4]: < 11.8 nM
TGI [4]: 66.6 nM
GI50 [5]: 278 nM
TGI [5]: > 100000 nM
GI50 [6]: 53.7 nM
TGI [6]: 16200 nM
GI50 [7]: 231 nM
TGI [7]: 6850 nM
GI50 [8]: 2190 nM
TGI [8]: 32800 nM
GI50 [9]: 107 nM
TGI [9]: > 100000 nM
